# Test results as given in patent US20240285586A1, “METHODS FOR TREATING BACTERIAL CELL POPULATIONS” (THE HONG KONG POLYTECHNIC UNIVERSITY, priority 2021, published 2024).
# Values joined by “and” are separate entries in the source; they are usually repeats but may differ in a detail not shown here. Identical values can stand only once. Residues, ends and D or L forms follow the SMILES beside them. *: point of attachment. βNA = c1ccc2cc(N*)ccc2c1
# What was measured:
# E. coli BW25113 [1] = assay: Starvation-induced tolerance assay, wild type E. coli; type: cell-based, Escherichia coli
# Protocol: (§1) Tolerance assay. […] Standard serial dilution and plating on LB agar was performed before and after ampicillin treatment for 4 hrs, 2 days, 4 days and 6 days to determine the fraction of the test population that survived at different time points during the course of treatment.
# (§2) Standard serial dilution and plating on LB agar was performed on samples collected every 24 hrs to assess changes in the size of the sub-population that survived during the treatment process.
# (§3) Upon reaching the exponential phase, bacteria were washed and re-suspended in saline (0.9% NaCl), and then incubated at 37° C. under constant shaking (250 rpm/min) for 24 hrs. […] Standard serial dilution and plating on LB agar were performed before and after ampicillin treatment for 4 hrs, 1 day, 2 days and 4 days to determine the fraction of the test population that survived at different time points during the course of treatment.
# E. coli BW25113 ΔpspA = type: cell-based, Escherichia coli
# Protocol: as §1, §2
# E. coli BW25113::ΔnuoI = assay: Starvation-induced tolerance assay, ΔnuoI knockout; type: cell-based, Escherichia coli; conditions: 24 hrs starvation, then six days of ampicillin treatment
# Protocol: as §1
# [2] = test system: E. coli BW25113::ΔndhΔnuoI; assay: Starvation-induced tolerance assay, ΔndhΔnuoI double knockout; type: cell-based, Escherichia coli; conditions: ampicillin for six days
# Protocol: as §1
# E. coli ΔtolC mutant = assay: Starvation-induced tolerance assay, ΔtolC knockout; type: cell-based, Escherichia coli; conditions: ampicillin for six days
# Protocol: as §1
# E. coli tolerant cells = assay: Scanning electron microscopy of tolerant cells; type: cell-based, Escherichia coli; conditions: for cell morphology under SEM: 24 hours
# Protocol: Electron microscopy analysis. E. coli which had been subjected to starvation for 24 hours were treated with econazole alone, ampicillin alone and a combination of econazole and ampicillin for 24 hours, followed by examination under scanning electron microscopy (SEM). Cells treated with saline were included as negative control. Briefly, bacterial cells were fixed in 0.4% polyoxymethylene overnight and then in Osmium tetroxide (OsO4) for 2 hrs, followed by washing for three times with PBS. The cells were then dehydrated using pure ethanol, and infiltrated and embedded in Spurr resin for examination by SEM.
# K. pneumoniae = assay: Starvation-induced tolerance assay, K. pneumoniae; type: cell-based, Klebsiella pneumoniae
# Protocol: as §1, §2, §3
# A. baumannii = assay: Starvation-induced tolerance assay, A. baumannii; type: cell-based, Acinetobacter baumannii
# Protocol: as §1, §2, §3
# P. aeruginosa [3] = assay: Starvation-induced tolerance assay, P. aeruginosa; type: cell-based, Pseudomonas aeruginosa
# Protocol: as §1, §2, §3
# S. aureus [4] = assay: Starvation-induced tolerance assay, S. aureus; type: cell-based, Staphylococcus aureus
# Protocol: as §1, §2, §3
# S. typhimurium = assay: Starvation-induced tolerance assay, S. typhimurium; type: cell-based
# Protocol: as §1, §2, §3
# [5] = test system: carbapenem resistant E. coli J53 strain which expressed the carbapenemase NDM-1; assay: Starvation-induced tolerance assay, carbapenem-resistant E. coli; type: cell-based, Escherichia coli; conditions: econazole + sub-lethal dose of meropenem (40 μg/ml), nutrient starvation
# Protocol: Upon reaching the exponential phase, bacteria were washed and re-suspended in saline (0.9% NaCl), and then incubated at 37° C. under constant shaking (250 rpm/min) for 24 hrs. […]
# S. aureus ATCC29213 = assay: Minimal inhibitory concentration, S. aureus; type: cell-based; conditions: Staphylococcus aureus, 16 hours, Mueller Hinton Broth
# From the text: (§4) Determination of Minimal Inhibitory Concentrations (MICs).
# Gram negative strains = assay: Minimal inhibitory concentration, Gram negative strains; type: cell-based; conditions: all Gram negative test strains
# From the text: as §4
# E. coli = assay: Membrane potential assay DiSC3(5), E. coli; type: cell-based, Escherichia coli; conditions: econazole 40 μM, cells starved 24 hrs
# Protocol: Membrane potential assay. The transmembrane electrical potential was measured by using a membrane potential-sensitive probe, DiSC3(5). Bacterial population in either the exponential phase (OD600 of 0.2) or under 24 hrs starvation (resuspended in saline) were collected by centrifugation (6000×g, 2 mins), washed twice and re-suspended in PBS (pH 7.4), and then adjusted to OD600 of 0.2. KCl and DiSC3(5) were added until final concentration of 100 mM and 1 μM was respectively reached, followed by incubation at room temperature for 25 mins in the dark to allow the dye to penetrate through the outer membrane and produce a quenching effect. […] The fluorescence reading was monitored by using a Clariostar Microplate Reader (BMG LABTECH) at an excitation wavelength of 622±10 nm and an emission wavelength of 670±10 nm for 10 mins. Upon depolarization, the dye was rapidly released into the medium, resulting in dequenching and facilitating detection fluorometrically. […] The sample preparation method is same as that prior to testing with the Microplate Reader except for the last step. Briefly, cells were washed with PBS three times before confocal observation to remove extracellular DiSC3(5) dye. […] DiSC3(5) was excited by 638 nm laser and fluorescence was detected by HyD detector at emission wavelength 675±25 nm. The images were acquired and analyzed by the Leica Application Suite X (LAS X) software. […]
# S. aureus [6] = assay: Membrane potential assay DiSC3(5), S. aureus; type: cell-based, Staphylococcus aureus; conditions: econazole 40 μM, cells starved 24 hrs
# Protocol: (§5) Assessment of effect of econazole on membrane potential. Fluorometric measurement of membrane potential of bacterial cells was performed using the voltage-sensitive dye DiSC3(5). The test organisms were first subjected to starvation for 24 hrs and then centrifuged and washed twice with PBS. The cell pellet was resuspended in PBS containing 100 mM of KCl to a final concentration of OD 0.2. The cells were incubated with 1 μM of DiSC3(5) for 5 min under shaking in dark. The cells were treated with econazole (40 μM); a no treatment control was included. The fluorometric measurements were carried out on black polystyrene microtiter plates using a Clariostar Microplate Reader (BMG LABTECH), with excitation wavelength at 610 nm and emission wavelength at 660 nm.
# P. aeruginosa [7] = assay: Membrane potential assay DiSC3(5), P. aeruginosa; type: cell-based, Pseudomonas aeruginosa; conditions: econazole 40 μM, cells starved 24 hrs
# Protocol: as §5
# E. coli BW25113 [8] = assay: Mouse deep-seated thigh infection model; type: in vivo, Escherichia coli
# Protocol: NIH mice were purchased from the Guangdong Center for Experimental Animals, Guangzhou, China. Male mice at ˜6 weeks of age with a weight of ˜20 g were used in the experiments, 6 mice per group. The animals were allowed to acclimate to the housing facility for 5 days. The mice were made neutropenic by administering 150 mg/kg cyclophosphamide 3 days and 1 day before infection. An inoculum of 1×10^6 CFU of E. coli BW25113 was injected into the right thigh of the mouse. At 24 hrs post-infection, the mice in each group received ceftazidime (20 mg/kg), econazole (20 mg/kg) or ceftazidime combining econazole treatment (i.p.) every 12 hrs for 72 hrs randomly. The mice were then euthanized and the infected thighs were aseptically excised and homogenized in PBS; the number of E. coli present in the samples was enumerated by serial dilution, spreading on LB plates, and incubation at 37° C. overnight. The population size of bacteria that survived different treatments was recorded, compared and analyzed by one-way ANOVA and post hoc Tukey test. The data were presented by using the Graph Pad Prism software. All experimental protocols followed the standard operating procedures of the Biosafety level 2 animal facilities approved by the Animal Ethics Committee of The City University of Hong Kong.
# S. typhimurium PY1 = assay: Mouse peritonitis infection (tolerance sepsis) model; type: in vivo
# Protocol: NIH male mice of about six-weeks-old with body weight of ˜20 g were used, 6 mice per group. The animals were allowed to acclimate to the housing facility for 5 days. The mice were made neutropenic by administering 150 mg/kg cyclophosphamide 3 days and 1 day before infection. Different amounts of S. typhimurium strain PY01 (2.8×10^5 CFU, 7.6×10^5 CFU or 1.5×10^6 CFU) were inoculated into the animals via intraperitoneal injection. The mice were subjected to ceftazidime (20 mg/kg), econazole (20 mg/kg) or ceftazidime combining econazole treatment (i.p.) 24 h after inoculation, at 12 hrs intervals for 72 hrs randomly. The mortality rate of the test mice was recorded every 12 hrs. After 72 h of treatment, live mice were euthanized and subjected to peritoneal washes which involved injection of 2 mL of saline into the intraperitoneal space, followed by abdominal massage. The abdomen was then cut open and 200 μL of peritoneal fluid were collected and serially diluted in saline. A 100 μL portion of each dilution was spread on LB plates, followed by incubation overnight at 37° C. Colonies were counted to determine the bacterial load in the test samples, which were expressed as CFU/ml. Statistical analysis and ethic approval were the same as described above.
# E. coli J53 (mcr-1) = assay: MIC of colistin in presence and absence of compound, broth dilution; type: cell-based, Escherichia coli; conditions: antibiotic resistant E. coli (FIG. 20)
# [9] = general statement; cited from earlier work
# Escherichia coli BW25113 = assay: Effect of PAβN on bacterial growth rate; type: cell-based; conditions: PAβN 100 μM in LB broth
# Protocol: Assessment of effect of PAβN on bacterial growth rate. The overnight culture of the Escherichia coli BW25113 strain was diluted 1:100 in LB Broth, followed by addition of 100 μM PAβN; a sample in which only saline was added was included as negative control. OD600 value was tested at different time points.
compound,measurement,setting,value
CC1(C)S[C@@H]2[C@H](NC(=O)[C@H](N)c3ccccc3)C(=O)N2[C@H]1C(=O)O [ampicillin],size of the antibiotic tolerant sub-population,"E. coli BW25113 [1]; wild type, 24 hrs starvation, then ampicillin 100 μg/mL (~10×MIC) for 6 days",4×10^6 cells/mL and ~2.5×10^7 cells/mL
same,size of the antibiotic tolerant sub-population,"E. coli BW25113 ΔpspA; 24 hrs starvation, then ampicillin 100 μg/mL for 6 days",~3×10^5 cells/mL
same,tolerant sub-population relative to that of wild type,E. coli BW25113 ΔpspA; after 6 days of ampicillin treatment,10%
same,population size,E. coli BW25113::ΔnuoI,~3.5×10^5 cell/mL
same,reduction of the tolerant population,[2],~10^4 fold
same,size of the tolerant population,[2],~200 cells/mL
same,size of the tolerant population,E. coli ΔtolC mutant,~5×10^4 cells/mL
same,cell morphology under SEM,E. coli tolerant cells; ampicillin 100 μg/ml and 1000 μg/ml,slight shrinkage in the pole areas
Clc1ccc(COC(Cn2ccnc2)c2ccc(Cl)cc2Cl)cc1 (stereo not drawn) [econazole],time to eradication of the entire tolerant population,E. coli BW25113 [1]; econazole 40 μM + ampicillin 10×MIC,24 h
same,effect of co-administration with ampicillin,"E. coli BW25113 [1]; econazole + ampicillin, E. coli",pronounced bactericidal synergistic effect
same,treatment time at which all tolerant cells were killed,E. coli BW25113 [1]; econazole + ciprofloxacin (1 μg/ml),24 h
same,size of bacterial population that survived,"E. coli BW25113 [1]; econazole + ciprofloxacin (1 μg/ml), 4 hrs",about 200 CFU/mL
same,treatment time at which all tolerant cells were killed,E. coli BW25113 [1]; econazole + gentamicin (20 μg/ml),24 h
same,size of bacterial population that survived,"E. coli BW25113 [1]; econazole + gentamicin (20 μg/ml), 4 hrs",about 200 CFU/mL
same,size of the population that survived,"E. coli BW25113 [1]; econazole alone, 4 hrs",about 1.7×10^5 CFU/mL
same,population size,"E. coli BW25113 [1]; econazole alone, 24 hrs",~1×10^4 CFU/mL
same,effect of co-administration with ampicillin,K. pneumoniae; econazole + ampicillin,pronounced bactericidal synergistic effect
same,time to eradication of the entire tolerant sub-population,K. pneumoniae; econazole + ampicillin,≤ 24 h
same,killing of tolerant cells,"K. pneumoniae; econazole alone, 40 μM",slight killing effect
same,effect of co-administration with ampicillin,A. baumannii; econazole + ampicillin,pronounced bactericidal synergistic effect
same,time to eradication of the entire tolerant sub-population,A. baumannii; econazole + ampicillin,≤ 24 h
same,killing of tolerant cells,"A. baumannii; econazole alone, 40 μM",slight killing effect
same,effect of co-administration with ampicillin,P. aeruginosa [3]; econazole + ampicillin,pronounced bactericidal synergistic effect
same,time to eradication of the tolerant sub-population,P. aeruginosa [3]; econazole + ampicillin,≤ 96 h
same,killing of tolerant cells,"P. aeruginosa [3]; econazole alone, 40 μM",slight killing effect
same,effect of co-administration with ampicillin,S. aureus [4]; econazole + ampicillin,pronounced bactericidal synergistic effect
same,time to eradication of tolerant cells,"S. aureus [4]; econazole alone, 40 μM",≤ 96 h
same,effect of co-administration with ampicillin,S. typhimurium; econazole + ampicillin,pronounced bactericidal synergistic effect
same,time to eradication of the tolerant sub-population,S. typhimurium; econazole + ampicillin,≤ 96 h
same,size of the tolerant population,"S. typhimurium; econazole + ceftazidime (100 μg/ml), within 96 hrs (FIG. 16F)",~500 CFU/mL
same,killing of tolerant cells,"S. typhimurium; econazole alone, 40 μM",slight killing effect
same,effect on the tolerant sub-population,[5],eradicate the tolerant sub-population
same,MIC,S. aureus ATCC29213,40 µM
same,MIC,Gram negative strains,> 160 µM
same,effect on PMF (DiSC3(5) fluorescence),E. coli,caused dissipation of PMF
same,effect on PMF (DiSC3(5) fluorescence),S. aureus [6],caused dissipation of PMF
same,effect on PMF (DiSC3(5) fluorescence),P. aeruginosa [7],caused dissipation of PMF
same,cell morphology under SEM,E. coli tolerant cells; econazole 40 μM + ampicillin 100 μg/ml,cell membrane structure was severely damaged
same,cell morphology under SEM,E. coli tolerant cells; econazole 40 μM alone,"rough cell surface, as well as leakage of intracellular material"
same,membrane damage or morphological changes,"E. coli tolerant cells; econazole, exponentially growing cells (data not shown)",not found to cause any detectable membrane damage or morphological changes
same,eradication of E. coli tolerant cells compared with ceftazidime (20 mg/Kg) alone,"E. coli BW25113 [8]; econazole 20 mg/kg + ceftazidime 20 mg/Kg i.p. every 12 hrs for 72 hrs, P=0.031",significantly more
same,eradication of E. coli tolerant cells compared with ceftazidime (20 mg/Kg) alone,"E. coli BW25113 [8]; econazole alone 20 mg/kg i.p. every 12 hrs for 72 hrs, P=0.026",significantly more
same,protection of the test animals compared with ceftazidime alone,"S. typhimurium PY1; ceftazidime + econazole (20 mg/kg each), inoculation of 7.6×10^5 CFU",slightly more effective
same,rate of eradication of PY1 tolerant cells in surviving mice,"S. typhimurium PY1; ceftazidime + econazole, 7.6×10^5 CFU, after 72 h, P<0.0001",significantly higher
same,survival rate,"S. typhimurium PY1; econazole 20 mg/kg + ceftazidime 20 mg/Kg, 1.5×10^6 CFU",80%
same,effect of co-administration with colistin,E. coli J53 (mcr-1),bactericidal synergistic effect
same,toxicity or safety in human,[9],proven safe
N=C(N)NCCC[C@H](NC(=O)[C@@H](N)Cc1ccccc1)C(=O)Nc1ccc2ccccc2c1 [PAβN] (H-Phe-Arg-βNA),effect on bacterial growth,Escherichia coli BW25113,did not exert any negative effect on bacterial growth
